In patent US9060945B2, “Use of danielone and derivatives thereof in skin care” (DSM IP Assets B.V., priority 2012, dated 2015):

Legend:
Assay type in all cases: cell-based
[1] = test system: Normal human melanocytes moderately pigmented (HEMn-MP); assay: Cytotoxicity, MTT assay; details: 3 days incubation, OD 550 nm
Protocol: Cytotoxicity was measured using the MTT assay (Roche). In brief: Normal human melanocytes moderately pigmented (HEMn-MP) were precultured for 24 hrs, and then incubated with compounds for three days. We then added MTT (Roche) labeling reagent 10 μl to each well (final concentration 0.5 mg/ml) and incubated the microtiterplate for 4 hrs at 37° C., and under 5% CO2. After addition of 100 μl solubilisation solution into each well, the plate was allowed to stand overnight in the incubator (37° C., 5% CO2. The absorbance OD 550 nm was measured in an absorbance plate reader (ELX 800 BIO-TEK Instrument) and the data is shown in Table 1.

[2] = test system: Human melanocytes moderately pigmented (HEMn-MP); assay: Cell-pellet depigmentation assay; details: scale 1 to 5 (5 = dark control cell pellet, 1 = very light brown cell pellet)
Protocol: Human melanocytes moderately pigmented (HEMn-MP) were seeded in 6-well culture plates at a cell density of 2×10E5 cells/mL and preincubated for three days in a 1:2 mixture of M2-Medium (Clonetics) and Promocell-Medium together ‘Culture medium’ in an incubator at a temperature of 37° C. and at 5% CO2 Atmosphere. Culture medium was exchanged with Culture Medium containing compound and melanogenesis progressed for another three days in an incubator at same incubation conditions as described above. Compound dilutions were done in duplicates. Cells were harvested after trypsinization and pooled in eppendorf-tubes, centrifugated and supernatant removed. The remaining cell pellet was photographed and visually checked for whitening effects. The pellets were scored for their darkness in a scale 1 to 5 (5 corresponding to dark control cell pellet) and 1 corresponding to a very light brown cell pellet.

[3] = test system: Normal human melanocytes NHM (HEMn-MP); assay: Effect on melanogenesis, comparative example (melanin synthesis in cell culture); details: for skin whitening activity (in words): at all three concentrations tested; for % melanin inhibition: 3 days, 405 nm
Protocol: Normal human melanocytes NHM (HEMn-MP) were seeded in 96 well cell culture plates (20′000 cells per well) and grown to sub-confluence for three days in a 1:2 mixture of M2-Medium (Clonetics) and Promocell-Medium together ‘Culture medium’. Culture medium was exchanged with Culture Medium containing compound and melanogenesis progressed for another three days at a temperature of 37° C. and at 5% CO2 atmosphere. Including cell layer and culture supernatant total melanin was extracted using 1.7M KOH with shaking at 300 rpm for approximately 1 hour at RT. We measured melanin content at 405 nm in an absorbance plate reader. The experiment was done in triplicates. We used PTU as a positive control.

[4] = test system: Normal human melanocytes moderately pigmented (HEMn-MP); assay: Quantification of melanin synthesis in cell culture; details: 3 days, baseline = 100, 405 nm
Protocol: Normal human melanocytes moderately pigmented (HEMn-MP) were seeded in 96 well cell culture plates (20′000 cells per well) and grown to sub-confluence for three days in a 1:2 mixture of M2-Medium (Clonetics) and Promocell-Medium together ‘Culture medium’. Culture medium was exchanged with Culture Medium containing compound and melanogenesis progressed for another three days in an incubator at a temperature of 37° C. and at 5% CO2 atmosphere. Including cell layer and culture supernatant total melanin was extracted using 1.7M KOH with shaking at 300 rpm for approximately 1 hour at room temperature. We measured melanin content at 405 nm in an absorbance plate reader. We use phenylthiourea (PTU) as a positive control at a concentration of 0.0152% (1 mM). PTU is a tyrosinase inhibitor (Poma 1999) and is commonly used as a reference in cell pigmentation assays (see e.g. Le Pape 2008).

For `COc1cc(C(=O)CO)cc(OC)c1O` [Danielone, 2-hydroxy-1-(4-hydroxy-3,5-dimethoxy-phenyl)-ethanone], which Viability ([1]; concentration 0.00025 %) is on record?
Its Viability is 112%.

What about the Viability ([1]; concentration 0.0025 %) of the same compound?
Its Viability is 113%.

And the Viability ([1]; concentration 0.025 %)?
The Viability was 51%.

What about the “Darkness level of the cell pellet” value ([2]; 0.0025%) of the same compound?
Its value is 2.

What about the “skin whitening activity (in words)” value [3] of the same compound?
The value was “very efficient”.

What about the “% melanin inhibition” value ([3]; concentration 0.0025%) of the same compound?
The value was 1.51%.

What about the “% melanin inhibition” value ([3]; concentration 0.005%) of the same compound?
Its value is −40.20%.

What about the “% melanin inhibition” value ([3]; concentration 0.01%) of the same compound?
Its value is −49.25%.

What about the Total melanin ([4]; concentration 0.000625 %) of the same compound?
Its Total melanin is 104%.

And the Total melanin ([4]; concentration 0.00125 %)?
The Total melanin was 75%.

And the Total melanin ([4]; concentration 0.0025 %)?
Its Total melanin is 66%.

`NC(=S)Nc1ccccc1` [PTU, phenylthiourea, reference compound] was tested. Which “Darkness level of the cell pellet” value ([2]; 0.0152%) did it give?
Its value is 1.

What about the Total melanin ([4]; concentration 0.0152 % (1 mM)) of the same compound?
The Total melanin was 58%.

Which “skin whitening activity (in words)” value [3] does the source give for `COc1cc(C(=O)CCO)ccc1O` [beta-hydroxypropiovanillon, reference compound] here?
The value was “no activity”.

And the “% melanin inhibition” value ([3]; concentration 0.0025%)?
The value was 7.45%.

And the “% melanin inhibition” value ([3]; concentration 0.005%)?
Its value is 7.45%.

And the “% melanin inhibition” value ([3]; concentration 0.01%)?
Its value is 4.26%.
